Source: ChEMBL document CHEMBL1137046, “Potent and selective proline derived dipeptidyl peptidase IV inhibitors” (Bioorg Med Chem Lett, 2004)
pIC50: −log10 of the molar value.

Experiments:
[1] = Half-life in rats ([…]/[…] mg/kg i.v./p.o.); format: ADME, organism-based; details: rat, in vivo, 2 mg/kg
Dipeptidyl peptidase 8 = Dipeptidyl peptidase 8 (Homo sapiens, UniProt Q6V1X1); test: Inhibition of Dipeptidylpeptidase VIII
Dipeptidyl peptidase 9 = Dipeptidyl peptidase 9 (Homo sapiens, UniProt Q86TI2); test: Inhibition of Dipeptidylpeptidase IX
Chain of Dipeptidyl peptidase 9 (Q86TI2 whole entry): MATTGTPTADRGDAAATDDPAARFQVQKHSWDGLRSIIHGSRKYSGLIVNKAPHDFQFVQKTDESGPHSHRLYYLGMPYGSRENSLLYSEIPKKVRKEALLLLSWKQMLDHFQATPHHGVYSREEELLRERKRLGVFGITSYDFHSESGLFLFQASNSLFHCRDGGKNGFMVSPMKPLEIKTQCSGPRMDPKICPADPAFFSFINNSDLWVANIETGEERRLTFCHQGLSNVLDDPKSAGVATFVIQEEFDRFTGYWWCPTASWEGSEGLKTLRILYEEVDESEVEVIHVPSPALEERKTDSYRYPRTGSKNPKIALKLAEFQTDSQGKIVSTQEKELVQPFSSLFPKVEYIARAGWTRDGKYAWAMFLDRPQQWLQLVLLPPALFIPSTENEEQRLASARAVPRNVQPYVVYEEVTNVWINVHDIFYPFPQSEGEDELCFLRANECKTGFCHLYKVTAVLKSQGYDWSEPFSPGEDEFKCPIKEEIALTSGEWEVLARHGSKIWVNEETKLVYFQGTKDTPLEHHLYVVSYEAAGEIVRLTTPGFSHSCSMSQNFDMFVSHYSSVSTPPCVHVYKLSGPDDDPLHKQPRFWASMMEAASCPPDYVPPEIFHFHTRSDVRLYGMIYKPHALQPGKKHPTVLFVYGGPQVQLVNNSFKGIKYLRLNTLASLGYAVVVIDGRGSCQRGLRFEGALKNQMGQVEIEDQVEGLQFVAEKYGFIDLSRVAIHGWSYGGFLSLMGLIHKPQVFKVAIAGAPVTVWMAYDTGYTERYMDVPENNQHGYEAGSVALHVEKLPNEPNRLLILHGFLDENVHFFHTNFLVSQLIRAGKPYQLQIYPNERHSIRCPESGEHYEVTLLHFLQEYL

[2] = Plasma clearance in rats (1/2 mg/kg i.v./p.o.); format: ADME, organism-based; details: rat, 1 mg/kg i.v.
Dipeptidyl peptidase 2 = Dipeptidyl peptidase 2 (Homo sapiens, UniProt Q9UHL4); test: Inhibition of Quiescent cell prolyl dipeptidase
[3] = Oral bioavailability in rat (dose 1 mg/kg i.v. and 2 mg/kg p.o.); format: ADME, organism-based; details: in vivo
Prolyl endopeptidase FAP = target: T1, Prolyl endopeptidase FAP (Homo sapiens, UniProt Q12884); test: Inhibition of Fibroblast activation protein alpha (seprase)
T1 sequence (Q12884 whole entry): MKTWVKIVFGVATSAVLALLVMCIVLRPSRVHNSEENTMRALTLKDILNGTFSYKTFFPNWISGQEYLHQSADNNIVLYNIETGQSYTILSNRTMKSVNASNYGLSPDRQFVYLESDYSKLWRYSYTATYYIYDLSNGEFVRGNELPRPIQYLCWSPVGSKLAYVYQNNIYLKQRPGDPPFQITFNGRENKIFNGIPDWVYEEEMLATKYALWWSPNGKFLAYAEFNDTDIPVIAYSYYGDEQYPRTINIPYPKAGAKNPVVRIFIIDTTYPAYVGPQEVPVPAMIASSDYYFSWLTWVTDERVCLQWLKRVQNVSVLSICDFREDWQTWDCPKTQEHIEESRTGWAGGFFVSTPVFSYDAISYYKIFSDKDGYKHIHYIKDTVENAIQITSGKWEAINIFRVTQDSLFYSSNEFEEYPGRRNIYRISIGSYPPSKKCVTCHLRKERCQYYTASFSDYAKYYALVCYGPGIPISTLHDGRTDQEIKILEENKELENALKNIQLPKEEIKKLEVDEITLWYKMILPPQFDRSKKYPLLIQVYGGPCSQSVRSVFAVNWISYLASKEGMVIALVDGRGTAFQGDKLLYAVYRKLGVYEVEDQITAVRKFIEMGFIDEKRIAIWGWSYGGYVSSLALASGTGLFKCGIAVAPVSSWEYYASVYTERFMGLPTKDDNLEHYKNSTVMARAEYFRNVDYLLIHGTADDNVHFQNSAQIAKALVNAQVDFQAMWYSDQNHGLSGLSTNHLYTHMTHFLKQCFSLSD

[4] = Inhibition of Aminopeptidase P
Prolyl endopeptidase = target: T2, Prolyl endopeptidase (Homo sapiens, UniProt P48147); test: Inhibition of prolyl endopeptidase
T2 sequence (P48147 whole entry): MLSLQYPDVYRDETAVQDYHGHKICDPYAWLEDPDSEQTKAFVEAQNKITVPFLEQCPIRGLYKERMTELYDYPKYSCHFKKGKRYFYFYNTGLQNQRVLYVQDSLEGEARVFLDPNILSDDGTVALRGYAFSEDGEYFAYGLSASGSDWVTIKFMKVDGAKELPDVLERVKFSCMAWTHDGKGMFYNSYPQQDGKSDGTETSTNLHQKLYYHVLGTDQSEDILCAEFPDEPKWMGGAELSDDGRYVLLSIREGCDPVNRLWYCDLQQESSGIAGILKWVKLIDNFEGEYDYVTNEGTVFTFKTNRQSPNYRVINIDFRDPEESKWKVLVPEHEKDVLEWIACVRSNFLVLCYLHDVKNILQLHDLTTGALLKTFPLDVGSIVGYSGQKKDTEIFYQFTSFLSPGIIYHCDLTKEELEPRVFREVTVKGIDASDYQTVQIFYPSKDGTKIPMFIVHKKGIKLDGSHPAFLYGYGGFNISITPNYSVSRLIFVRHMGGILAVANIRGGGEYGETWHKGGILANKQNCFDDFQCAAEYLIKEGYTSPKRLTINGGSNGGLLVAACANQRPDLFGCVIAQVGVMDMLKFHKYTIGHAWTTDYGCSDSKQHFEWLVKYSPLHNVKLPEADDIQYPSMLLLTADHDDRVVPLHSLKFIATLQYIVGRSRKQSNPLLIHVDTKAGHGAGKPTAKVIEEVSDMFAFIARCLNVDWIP

Xaa-Pro dipeptidase = target: T3, Xaa-Pro dipeptidase (Homo sapiens, UniProt P12955); test: Inhibition of prolidase
T3 sequence (P12955 whole entry): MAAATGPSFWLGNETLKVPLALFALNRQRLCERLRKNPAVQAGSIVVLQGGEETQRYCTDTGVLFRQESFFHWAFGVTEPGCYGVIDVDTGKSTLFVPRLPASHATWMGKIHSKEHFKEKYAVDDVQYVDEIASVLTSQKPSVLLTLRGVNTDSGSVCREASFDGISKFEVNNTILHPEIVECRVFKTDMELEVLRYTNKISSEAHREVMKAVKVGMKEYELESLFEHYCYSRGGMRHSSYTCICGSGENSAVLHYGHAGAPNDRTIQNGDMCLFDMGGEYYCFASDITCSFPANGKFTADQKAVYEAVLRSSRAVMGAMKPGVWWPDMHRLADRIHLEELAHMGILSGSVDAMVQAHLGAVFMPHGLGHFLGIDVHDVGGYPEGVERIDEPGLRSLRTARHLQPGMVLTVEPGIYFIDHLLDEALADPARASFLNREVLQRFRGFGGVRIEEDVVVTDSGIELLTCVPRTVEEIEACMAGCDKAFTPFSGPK

Dipeptidyl peptidase 4 = Dipeptidyl peptidase 4 (Homo sapiens, UniProt P27487); test: Inhibition of human recombinant Dipeptidylpeptidase IV
Chain of Dipeptidyl peptidase 4 (P27487 whole entry): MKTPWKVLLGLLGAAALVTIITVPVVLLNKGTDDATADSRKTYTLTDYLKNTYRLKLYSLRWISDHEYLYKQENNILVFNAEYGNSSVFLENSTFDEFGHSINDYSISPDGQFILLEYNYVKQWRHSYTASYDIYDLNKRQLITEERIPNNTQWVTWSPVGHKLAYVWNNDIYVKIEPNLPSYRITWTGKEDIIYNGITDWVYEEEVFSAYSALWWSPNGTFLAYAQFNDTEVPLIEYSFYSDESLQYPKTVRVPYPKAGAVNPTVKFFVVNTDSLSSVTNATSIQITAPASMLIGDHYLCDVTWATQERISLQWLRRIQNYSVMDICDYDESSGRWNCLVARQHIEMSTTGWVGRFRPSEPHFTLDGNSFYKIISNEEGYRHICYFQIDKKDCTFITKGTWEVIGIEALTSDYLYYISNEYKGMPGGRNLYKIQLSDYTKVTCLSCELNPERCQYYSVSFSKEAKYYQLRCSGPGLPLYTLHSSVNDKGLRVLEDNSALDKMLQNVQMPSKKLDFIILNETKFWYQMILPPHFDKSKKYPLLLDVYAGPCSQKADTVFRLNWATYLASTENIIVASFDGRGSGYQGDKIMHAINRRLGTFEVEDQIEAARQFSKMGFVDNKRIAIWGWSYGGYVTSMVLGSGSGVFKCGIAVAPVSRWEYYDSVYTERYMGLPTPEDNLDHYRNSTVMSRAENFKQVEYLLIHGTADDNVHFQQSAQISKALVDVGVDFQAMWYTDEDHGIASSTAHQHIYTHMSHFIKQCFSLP

[5] = target: Voltage-gated inwardly rectifying potassium channel KCNH2 (Homo sapiens, UniProt Q12809); test: Inhibition of human Potassium channel HERG
Chain of Voltage-gated inwardly rectifying potassium channel KCNH2 (Q12809 whole entry): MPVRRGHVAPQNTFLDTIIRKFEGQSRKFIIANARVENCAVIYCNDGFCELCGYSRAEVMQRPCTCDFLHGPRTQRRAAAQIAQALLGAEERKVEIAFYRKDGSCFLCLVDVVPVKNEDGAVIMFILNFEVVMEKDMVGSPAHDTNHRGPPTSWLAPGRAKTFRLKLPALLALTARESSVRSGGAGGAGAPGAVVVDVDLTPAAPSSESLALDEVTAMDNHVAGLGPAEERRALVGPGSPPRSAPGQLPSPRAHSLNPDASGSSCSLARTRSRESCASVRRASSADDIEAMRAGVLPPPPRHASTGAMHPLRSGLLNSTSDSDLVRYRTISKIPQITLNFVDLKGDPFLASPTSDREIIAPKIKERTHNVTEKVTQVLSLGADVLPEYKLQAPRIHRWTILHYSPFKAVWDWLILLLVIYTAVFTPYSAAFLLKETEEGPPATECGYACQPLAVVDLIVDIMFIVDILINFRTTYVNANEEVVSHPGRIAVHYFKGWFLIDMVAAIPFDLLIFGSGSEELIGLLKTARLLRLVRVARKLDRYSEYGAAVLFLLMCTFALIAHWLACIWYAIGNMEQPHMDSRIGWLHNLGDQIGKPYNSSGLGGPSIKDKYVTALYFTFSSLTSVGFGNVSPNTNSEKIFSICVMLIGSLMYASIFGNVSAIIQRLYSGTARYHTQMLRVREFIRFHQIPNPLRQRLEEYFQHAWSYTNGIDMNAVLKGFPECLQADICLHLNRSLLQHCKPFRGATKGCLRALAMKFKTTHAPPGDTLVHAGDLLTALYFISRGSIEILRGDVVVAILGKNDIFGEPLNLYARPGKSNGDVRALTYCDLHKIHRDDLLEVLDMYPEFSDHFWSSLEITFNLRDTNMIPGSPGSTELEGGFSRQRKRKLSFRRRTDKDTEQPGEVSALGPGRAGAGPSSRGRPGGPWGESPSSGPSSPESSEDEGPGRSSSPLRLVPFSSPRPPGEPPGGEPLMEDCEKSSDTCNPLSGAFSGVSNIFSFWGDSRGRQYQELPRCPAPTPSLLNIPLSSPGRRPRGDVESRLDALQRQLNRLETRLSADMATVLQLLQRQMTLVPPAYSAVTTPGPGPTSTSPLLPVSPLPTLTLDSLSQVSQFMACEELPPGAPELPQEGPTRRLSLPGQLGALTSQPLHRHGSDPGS

Chain of Dipeptidyl peptidase 8 (Q6V1X1 whole entry): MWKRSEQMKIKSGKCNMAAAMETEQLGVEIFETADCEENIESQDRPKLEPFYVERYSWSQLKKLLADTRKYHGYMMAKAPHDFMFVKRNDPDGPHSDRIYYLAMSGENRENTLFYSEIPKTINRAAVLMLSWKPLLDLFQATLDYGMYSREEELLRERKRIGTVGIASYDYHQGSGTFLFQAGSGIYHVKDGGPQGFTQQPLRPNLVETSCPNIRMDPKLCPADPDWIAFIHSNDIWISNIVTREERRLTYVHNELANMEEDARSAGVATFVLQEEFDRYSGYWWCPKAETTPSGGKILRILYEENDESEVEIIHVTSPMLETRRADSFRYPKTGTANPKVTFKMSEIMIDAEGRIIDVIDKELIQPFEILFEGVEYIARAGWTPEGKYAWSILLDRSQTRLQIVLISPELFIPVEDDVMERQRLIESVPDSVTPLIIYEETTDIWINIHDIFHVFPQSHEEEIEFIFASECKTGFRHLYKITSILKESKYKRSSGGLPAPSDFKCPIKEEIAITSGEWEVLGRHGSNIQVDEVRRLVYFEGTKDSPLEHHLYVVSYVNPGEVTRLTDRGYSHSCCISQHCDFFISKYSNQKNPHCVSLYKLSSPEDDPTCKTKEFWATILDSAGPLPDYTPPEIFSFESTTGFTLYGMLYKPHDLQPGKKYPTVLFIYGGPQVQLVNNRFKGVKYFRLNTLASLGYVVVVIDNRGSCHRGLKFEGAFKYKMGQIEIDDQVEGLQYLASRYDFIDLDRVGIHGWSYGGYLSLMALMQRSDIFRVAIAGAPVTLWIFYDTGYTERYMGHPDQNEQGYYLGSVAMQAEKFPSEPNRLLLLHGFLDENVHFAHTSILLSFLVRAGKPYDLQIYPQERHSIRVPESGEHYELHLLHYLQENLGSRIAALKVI

half-life [1] [min] | pIC50 (Dipeptidyl peptidase 8) | pIC50 (Dipeptidyl peptidase 9) | clearance [2] [mL/min/kg] | pIC50 (Dipeptidyl peptidase 2) | bioavailability [3] [%] | pIC50 (Prolyl endopeptidase FAP) | pIC50 [4] | pIC50 (Prolyl endopeptidase) | pIC50 (Xaa-Pro dipeptidase) | pIC50 (Dipeptidyl peptidase 4) | SMILES | pIC50 [5]
21.6 | < 4.00 | < 4.00 | 47 | < 4.00 | < 1 | < 4.00 |  |  |  |  | NC(CC(=O)N1CCC[C@H]1C(=O)NCc1ccc(C(=O)O)cc1)Cc1ccc(F)c(F)c1.O=C(O)C(F)(F)F (stereo not given in full) | 
11.4 | < 4.30 |  | 25 | < 4.00 | 10 | < 4.00 |  |  |  |  | NC(CC(=O)N1CSC[C@H]1C(=O)NCc1ccc(CC(=O)O)cc1)Cc1ccccc1F.O=C(O)C(F)(F)F (stereo not given in full) | 
21.6 | < 4.00 | < 4.00 | 47 | < 4.00 | < 1 | 4.32 | < 4.00 | < 4.00 | < 4.00 | 8.09 | CC(C)[C@@H](Oc1ccc(CNC(=O)[C@@H]2CCCN2C(=O)CC(N)Cc2c(F)c(F)c(F)c(F)c2F)cc1)C(=O)O.O=C(O)C(F)(F)F (stereo not given in full) | 
 |  |  |  | < 4.00 |  | < 4.00 |  | < 4.00 |  |  | CC(C)[C@@H](Oc1ccc(CNC(=O)[C@@H]2CCCN2C(=O)C(N)C2CCCCC2)cc1)C(=O)O (stereo not given in full) | < 4.05
12 | < 4.00 | < 4.00 | 54 | < 4.00 | < 1 | < 4.00 | < 4.00 |  | < 4.00 | 7.41 | NC(CC(=O)N1CCC[C@H]1C(=O)NCCCCc1nn[nH]n1)Cc1ccccc1F.O=C(O)C(F)(F)F (stereo not given in full) | 
6 | < 4.00 | < 4.00 | 140 | 4.23 | 11 | < 4.00 | < 4.00 | 4.00 | < 4.00 | 7.06 | COC(=O)Cc1ccc(CNC(=O)[C@@H]2CSCN2C(=O)CC(N)Cc2ccccc2F)cc1.O=C(O)C(F)(F)F (stereo not given in full) | 5.01
37.8 | < 4.00 | 4.07 | 150 | < 4.00 |  | 4.68 | < 4.00 | 4.41 | < 4.00 | 9.32 | CC(C)[C@@H](Oc1ccc(CNC(=O)[C@@H]2CCCN2C(=O)CC(N)Cc2cc(F)ccc2F)cc1)C(=O)O.O=C(O)C(F)(F)F (stereo not given in full) | 
46.8 | 5.28 | < 4.00 | 78 | 4.26 | 38 | < 4.00 | < 4.00 |  | < 4.00 | 6.14 | NC(CC(=O)N1CCC[C@H]1C(=O)NCc1ccc(C(F)(F)F)cc1)Cc1ccccc1F.O=C(O)C(F)(F)F (stereo not given in full) | 
